Test results from PubChem BioAssay AID1963832 (Molecular Pharmacology Branch, DTP, NCI, 2024).

Tested on: 885724-159-R-J1-PDC complex spheroid viability
Experiment: Anticancer human tumor 885724-159-R-J1-PDC patient-derived pancreatic adenocarcinoma cell line growth inhibition [POLQ]
Conditions: for IC50: curve of first compound; for viability, T/C: stronger effect = lower value
Procedure: Multicellular complex tumor spheroid response to Polymerase (POL) inhibitors (novobiocin, ART-558, RP6685) in combination with a variety of drugs and investigational agents in selected tumor cell lines
The POL inhibitors (novobiocin, ART-558, and RP6685) were evaluated both individually and in combination with standard of care and investigational anticancer small molecules within a complex spheroid model of solid tumors. . Complex spheroids include a stromal component modeled by human endothelial cells (HUVEC) and fibroblasts modeled by human mesenchymal stem cells (MSCs). The concentration ranges selected for each drug and investigational agent were based upon clinically achievable concentrations if the clinical Cmax of the agent was known.
Compounds. The drugs and investigational agents: novobiocin (NSC847541), ART-558 (NSC835418), RP-6685 (NSC848927), peposertib (NSC802822), ceralasertib (NSC780249), elimusertib (NSC800525), camonsertib (NSC841442), AZD-1390 (NSC803789), olaparib (NSC753686), talazoparib (NSC767125), rucaparib (NSC756644), sotorasib (NSC818433), MRTX-1133 (NSC836407), SN-38 (NSC673596), topotecan (NSC609699), epotoside (NSC141540), doxorubicin (NSC123127), gemcitabine (NSC613327), 5-fluorouracil (NSC19893), paclitaxel (NSC125973), vemurafenib (NSC761431), MSA-2 (NSC828583), SN-011 (NSC837082), adavosertib (NSC754352), prexasertib (NSC758257), carboplatin (NSC241240) and oxaliplatin (NSC266046), were obtained from the National Cancer Institute (NCI) Developmental Therapeutics Program Chemical Repository (21). The FDA-approved anticancer drug set is available from the Developmental Therapeutics Program at https://dtp.cancer.gov/organization/dscb/obtaining/. […] The stock solutions were prepared in dimethyl sulfoxide (DMSO, Sigma-Aldrich, St. Louis, MO, cat. D2650), except for the platinum compounds which were prepared in saline (Quality Biological, Gaithersburg, MD, cat. 114-055-101), at 800-fold the tested concentration and stored at -70 degrees C prior to their use. All drugs and investigational agents were tested over a range starting from a high concentration at or near the clinical Cmax and decreasing in half-log increments. If the clinical Cmax for an agent had not been determined, the highest concentration tested was 10 microM, except for SN-38, which was tested at a high concentration of 1 microM.
Cell Culture. All cells were maintained in an incubator at 37 degrees C and 5% CO2 with 95% humidity. The PDC lines were cultured according to standard operating procedures established by the NCI PDMR (https://pdmr.cancer.gov). Table 3 of the manuscript, lists the cell lines along with the number of the three cell types plated to form the mct-spheroids and media for tumor cell growth. After thawing, all PDC lines, except 997537-175-T-J1-PDC and 415267-285-R-J2-PDC, were cultured in Matrigel-coated flasks prepared with a working solution of 1X Ham's F-12 nutrient mix, without supplementation (Thermo Fisher Scientific, cat. 11765054), 100 U/mL penicillin-streptomycin (Thermo Fisher Scientific, cat. 15140122), and 2.5% Matrigel (Corning Inc., Corning, NY, cat. 354248) for the first three passages. The two PDC lines 997537-175-T-J1-PDC and 415267-285-R-J2-PDC were cultured on uncoated flasks. The 857933-349-R-J2-PDC line was cultured in 6C/Colon 1B media containing advanced DMEM/F-12 (Thermo Fisher Scientific, cat. 12634028), 10 mM HEPES (Thermo Fisher Scientific, cat. 15630080), 1X GlutaMAX supplement (Thermo Fisher Scientific, cat. 35050061), 0.1 mg/mL primocin (InvivoGen, San Diego, CA, cat. ant-pm-2), 10% defined fetal bovine serum, heat inactivated (HyClone Laboratories Inc., Logan, UT, cat. SH30070.03HI), 50% L-WRN conditioned media (ATCC, cat. CRL-3276), 1.25 mM N-Acetyl-L-cysteine (Sigma-Aldrich, cat. A9165), 10 mM nicotinamide (Sigma-Aldrich, cat. N0636), 1X B-27 supplement (Thermo Fisher Scientific, cat. 17504044), 1X N-2 supplement (Thermo Fisher Scientific, cat. […]

[1] = second compound 0.0316 µM, first compound 0.00316 µM
[2] = second compound 0.0316 µM, first compound 0.01 µM
[3] = second compound 0.0316 µM, first compound 0.0316 µM
[4] = second compound 0.0316 µM, first compound 0.1 µM
[5] = second compound 0.1 µM, first compound 0.00316 µM
[6] = second compound 0.1 µM, first compound 0.01 µM
[7] = second compound 0.1 µM, first compound 0.0316 µM
[8] = second compound 0.1 µM, first compound 0.1 µM
[9] = second compound 0.316 µM, first compound 0.00316 µM
[10] = second compound 0.316 µM, first compound 0.01 µM
[11] = second compound 0.316 µM, first compound 0.0316 µM
[12] = second compound 0.316 µM, first compound 0.1 µM
[13] = second compound 1 µM, first compound 0.00316 µM
[14] = second compound 1 µM, first compound 0.01 µM
[15] = second compound 1 µM, first compound 0.0316 µM
[16] = second compound 1 µM, first compound 0.1 µM
[17] = second compound 3.16 µM, first compound 0.00316 µM
[18] = second compound 3.16 µM, first compound 0.01 µM
[19] = second compound 3.16 µM, first compound 0.0316 µM
[20] = second compound 3.16 µM, first compound 0.1 µM
[21] = second compound 10 µM, first compound 0.00316 µM
[22] = second compound 10 µM, first compound 0.01 µM
[23] = second compound 10 µM, first compound 0.0316 µM
[24] = second compound 10 µM, first compound 0.1 µM
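Further: spheroids exposed to compounds for 7 days.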

Compound: C=CCn1c(=O)c2cnc(Nc3ccc(N4CCN(C)CC4)cc3)nc2n1-c1cccc(C(C)(C)O)n1 + COC1C(OC(N)=O)C(O)C(Oc2ccc3c(O)c(NC(=O)c4ccc(O)c(CC=C(C)C)c4)c(=O)oc3c2C)OC1(C)C
- IC50 (second compound 0.0316 µM): 296 nM
- IC50 (second compound 0.1 µM): 532 nM
- IC50 (second compound 0.316 µM): 689 nM
- IC50 (second compound 1 µM): 713 nM
- IC50 (second compound 3.16 µM): 697 nM
- IC50 (second compound 10 µM): 631 nM
- viability, T/C [1]: 87.8%
- viability, T/C [2]: 109%
- viability, T/C [3]: 90.9%
- viability, T/C [4]: 85.4%
- viability, T/C (second compound 0.0316 µM, first compound 0.316 µM): 47.5%
- viability, T/C (second compound 0.0316 µM, first compound 1 µM): 42.2%
- viability, T/C [5]: 100%
- viability, T/C [6]: 99.7%
- viability, T/C [7]: 96.5%
- viability, T/C [8]: 86.4%
- viability, T/C (second compound 0.1 µM, first compound 0.316 µM): 54.4%
- viability, T/C (second compound 0.1 µM, first compound 1 µM): 44.5%
- viability, T/C [9]: 103%
- viability, T/C [10]: 100%
- viability, T/C [11]: 93.2%
- viability, T/C [12]: 82.7%
- viability, T/C (second compound 0.316 µM, first compound 0.316 µM): 52.7%
- viability, T/C (second compound 0.316 µM, first compound 1 µM): 49%
- viability, T/C [13]: 110%
- viability, T/C [14]: 93.8%
- viability, T/C [15]: 89.7%
- viability, T/C [16]: 82.6%
- viability, T/C (second compound 1 µM, first compound 0.316 µM): 55.1%
- viability, T/C (second compound 1 µM, first compound 1 µM): 46.9%
- viability, T/C [17]: 100%
- viability, T/C [18]: 88.3%
- viability, T/C [19]: 90.1%
- viability, T/C [20]: 77.3%
- viability, T/C (second compound 3.16 µM, first compound 0.316 µM): 57.4%
- viability, T/C (second compound 3.16 µM, first compound 1 µM): 46.5%
- viability, T/C [21]: 101%
- viability, T/C [22]: 90.2%
- viability, T/C [23]: 97.2%
- viability, T/C [24]: 74.3%
- viability, T/C (second compound 10 µM, first compound 0.316 µM): 58.6%
- viability, T/C (second compound 10 µM, first compound 1 µM): 44.8%

Compound: CC[C@@]1(O)C(=O)OCc2c1cc1n(c2=O)Cc2cc3c(CN(C)C)c(O)ccc3nc2-1 + COC1C(OC(N)=O)C(O)C(Oc2ccc3c(O)c(NC(=O)c4ccc(O)c(CC=C(C)C)c4)c(=O)oc3c2C)OC1(C)C
- IC50 (second compound 0.0316 µM): > 100 nM
- IC50 (second compound 0.1 µM): 94.7 nM
- IC50 (second compound 0.316 µM): > 100 nM
- IC50 (second compound 1 µM): > 100 nM
- IC50 (second compound 3.16 µM): > 100 nM
- IC50 (second compound 10 µM): > 100 nM
- viability, T/C (second compound 0.0316 µM, first compound 0.000316 µM): 102%
- viability, T/C (second compound 0.0316 µM, first compound 0.001 µM): 101%
- viability, T/C [1]: 84%
- viability, T/C [2]: 98.1%
- viability, T/C [3]: 76.2%
- viability, T/C [4]: 51.3%
- viability, T/C (second compound 0.1 µM, first compound 0.000316 µM): 111%
- viability, T/C (second compound 0.1 µM, first compound 0.001 µM): 117%
- viability, T/C [5]: 97.6%
- viability, T/C [6]: 97%
- viability, T/C [7]: 76.7%
- viability, T/C [8]: 48.3%
- viability, T/C (second compound 0.316 µM, first compound 0.000316 µM): 94.4%
- viability, T/C (second compound 0.316 µM, first compound 0.001 µM): 101%
- viability, T/C [9]: 94.4%
- viability, T/C [10]: 87.2%
- viability, T/C [11]: 73.2%
- viability, T/C [12]: 54.4%
- viability, T/C (second compound 1 µM, first compound 0.000316 µM): 104%
- viability, T/C (second compound 1 µM, first compound 0.001 µM): 94.6%
- viability, T/C [13]: 93.7%
- viability, T/C [14]: 95.3%
- viability, T/C [15]: 76.2%
- viability, T/C [16]: 56.1%
- viability, T/C (second compound 3.16 µM, first compound 0.000316 µM): 98.5%
- viability, T/C (second compound 3.16 µM, first compound 0.001 µM): 104%
- viability, T/C [17]: 97%
- viability, T/C [18]: 84.3%
- viability, T/C [19]: 77.3%
- viability, T/C [20]: 55.1%
- viability, T/C (second compound 10 µM, first compound 0.000316 µM): 109%
- viability, T/C (second compound 10 µM, first compound 0.001 µM): 94.5%
- viability, T/C [21]: 94.4%
- viability, T/C [22]: 79.2%
- viability, T/C [23]: 66.1%
- viability, T/C [24]: 50.9%
